Here are results for ten molecules from PubChem BioAssay (NCI).

Values joined by “and” are separate entries in the source; they are usually repeats but may differ in a detail not shown here. Identical values can stand only once.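 Growth conditions: 96-well plates. Treatment: test compound, 48 hours, 5 concentrations. Analysis: linear interpolation between bracketing concentrations; unreached endpoints set to highest concentration. GI50 = concentration required for 50% inhibition of growth. The concentration for full growth arrest is given as TGI.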

Among the test systems are HCC-2998 colon; HL-60(TB) leukemia; LOX IMVI melanoma; MOLT-4 leukemia; OVCAR-8 ovarian; RPMI-8226 leukemia; SK-MEL-5 melanoma; SN12C renal; SNB-75 CNS; UACC-257 melanoma.
Experiment in all cases: NCI-60 cell line screen, 48 h

In the case of `O=C(O)[C@H](c1ccccc1)[C@@H](C(=O)O)c1ccccc1`, the TGI in the assay with HCC-2998 colon, with HL-60(TB) leukemia, in the assay with LOX IMVI melanoma, with MOLT-4 leukemia, in the assay with OVCAR-8 ovarian and with RPMI-8226 leukemia was more than 100 µM each time. Moreover, the TGI in the assay with SK-MEL-5 melanoma, in the assay on SN12C renal, in the assay on SNB-75 CNS and with UACC-257 melanoma was more than 100 µM throughout.
Turning to `CCC1=CC2CN(C1)Cc1c([nH]c3ccccc13)[C@@](C(=O)OC)(c1cc3c(cc1OC)N(C)[C@H]1[C@@](O)(C(=O)OC)[C@H](OC(C)=O)[C@]4(CC)C=CCN5CC[C@]31[C@@H]54)C2` (stereo partly specified), the GI50 with HCC-2998 colon was 0.0108 µM and 0.0162 µM; with HL-60(TB) leukemia, less than 0.005 µM; in the assay on LOX IMVI melanoma it was less than 0.005 µM; in the assay with MOLT-4 leukemia, 0.0105 µM; in the assay on OVCAR-8 ovarian, 0.0201 µM and 0.0306 µM; in the assay with RPMI-8226 leukemia, 0.00931 µM and 0.0415 µM. Also, the GI50 was 0.00873 µM in the assay with SK-MEL-5 melanoma; 0.0118 µM and 0.0186 µM with SN12C renal; 7.54 µM in the assay with UACC-257 melanoma. Also, the TGI in the assay on HL-60(TB) leukemia is 0.00984 µM and 0.0285 µM; in the assay with LOX IMVI melanoma it was 50 µM and > 100 µM; with MOLT-4 leukemia, 11.1 µM and 13.9 µM; in the assay with OVCAR-8 ovarian, 50 µM and > 100 µM; with SK-MEL-5 melanoma it was 0.501 µM and 0.208 µM; in the assay on SN12C renal, 50 µM and > 100 µM. For the same molecule, the TGI with SNB-75 CNS was 17.9 µM; in the assay with UACC-257 melanoma, 33.3 µM.
With `Nc1ncnc2c1ncn2CC(O)CO` (stereo unspecified), the TGI in the assay with HCC-2998 colon, in the assay with HL-60(TB) leukemia, in the assay with LOX IMVI melanoma, in the assay with MOLT-4 leukemia, with OVCAR-8 ovarian and in the assay with RPMI-8226 leukemia was more than 100 µM throughout. Besides, the TGI with SK-MEL-5 melanoma, with SN12C renal, in the assay on SNB-75 CNS and in the assay on UACC-257 melanoma was more than 100 µM each time.
In the case of `O=S(=O)(CCCl)c1ccc(Cl)cc1`, the GI50 is 11.5 µM in the assay on HCC-2998 colon; 2.36 µM with HL-60(TB) leukemia; 1.91 µM with LOX IMVI melanoma; 3 µM with MOLT-4 leukemia; 3.14 µM in the assay on OVCAR-8 ovarian; 2.8 µM in the assay with RPMI-8226 leukemia. Besides, the GI50 in the assay on SK-MEL-5 melanoma is 6.27 µM; in the assay with SN12C renal it was 4.46 µM; in the assay on SNB-75 CNS, 2.4 µM; with UACC-257 melanoma, 2.98 µM. Also, the TGI in the assay with HCC-2998 colon was 25.6 µM; in the assay on HL-60(TB) leukemia, 9.79 µM; in the assay on LOX IMVI melanoma, 5.1 µM; in the assay with MOLT-4 leukemia, more than 100 µM; in the assay on OVCAR-8 ovarian, 12.9 µM; in the assay with RPMI-8226 leukemia, 12 µM. In addition, the TGI in the assay with SK-MEL-5 melanoma came to 20.4 µM; in the assay on SN12C renal it was 16.9 µM; in the assay with SNB-75 CNS, 29.8 µM; in the assay on UACC-257 melanoma it was 11.6 µM.
As to `O=C1OCC2=C1C(c1ccccc1)c1cc3c(cc1N2CCO)OCO3` (stereo unspecified), the GI50 was 9.91 µM in the assay with HCC-2998 colon; 3.46 µM in the assay on HL-60(TB) leukemia; 7 µM in the assay on LOX IMVI melanoma; more than 50 µM in the assay with MOLT-4 leukemia; 12.1 µM in the assay with OVCAR-8 ovarian; 3.09 µM in the assay with RPMI-8226 leukemia. Moreover, the GI50 with SK-MEL-5 melanoma was 2.78 µM; with SN12C renal it was 20.2 µM; with SNB-75 CNS it was 2.06 µM; in the assay on UACC-257 melanoma, more than 50 µM. Also, the TGI in the assay on HCC-2998 colon, in the assay on HL-60(TB) leukemia, with LOX IMVI melanoma, in the assay with MOLT-4 leukemia, in the assay with OVCAR-8 ovarian and with RPMI-8226 leukemia was more than 50 µM throughout. Further, the TGI with SK-MEL-5 melanoma, in the assay with SN12C renal, in the assay with SNB-75 CNS and in the assay on UACC-257 melanoma was more than 50 µM throughout.
For `COc1cc(NCCCCCCCNC(C)C)c2nccc(C)c2c1`, the GI50 in the assay with HCC-2998 colon was 6.29 µM; with HL-60(TB) leukemia, 6.94 µM; in the assay on LOX IMVI melanoma, 7.03 µM; in the assay on MOLT-4 leukemia, 6.95 µM; in the assay with OVCAR-8 ovarian it was 15.2 µM; in the assay on RPMI-8226 leukemia it was 4.79 µM. In addition, the GI50 in the assay with SK-MEL-5 melanoma was 11.9 µM; in the assay on SN12C renal, 12.2 µM; in the assay on SNB-75 CNS, 11.7 µM; with UACC-257 melanoma, 18.2 µM. In addition, the TGI is 19 µM in the assay on HCC-2998 colon; 23.9 µM in the assay with HL-60(TB) leukemia; 21.5 µM in the assay on LOX IMVI melanoma; 23 µM in the assay on MOLT-4 leukemia; 33.5 µM in the assay on OVCAR-8 ovarian; 20.4 µM in the assay on RPMI-8226 leukemia. In addition, the TGI in the assay with SK-MEL-5 melanoma was 24.6 µM; in the assay on SN12C renal it was 25.7 µM; in the assay with SNB-75 CNS, 24.3 µM; with UACC-257 melanoma it was 34.2 µM.
With `C=CC(OCC)(OCC)OCC`, the TGI with HCC-2998 colon, in the assay with HL-60(TB) leukemia, in the assay with LOX IMVI melanoma, in the assay with MOLT-4 leukemia, with OVCAR-8 ovarian and in the assay on RPMI-8226 leukemia was more than 100 µM throughout. The TGI in the assay on SK-MEL-5 melanoma, with SN12C renal, in the assay with SNB-75 CNS and with UACC-257 melanoma was more than 100 µM in each case.
Regarding `COc1ccc2c(c1)/C(=C/c1cc(OC)c(OC)c(OC)c1)C(=O)N2`, the GI50 with HCC-2998 colon was 0.586 µM; in the assay on HL-60(TB) leukemia, 0.0908 µM; in the assay with LOX IMVI melanoma it was 0.443 µM; with MOLT-4 leukemia, 0.216 µM; in the assay with OVCAR-8 ovarian, 1.28 µM; in the assay on RPMI-8226 leukemia it was 0.275 µM. For the same molecule, the GI50 in the assay with SK-MEL-5 melanoma was 0.155 µM; with SN12C renal it was 1.18 µM; in the assay on SNB-75 CNS, 0.483 µM; in the assay on UACC-257 melanoma it was 0.615 µM. The TGI with HCC-2998 colon is 16 µM; in the assay with HL-60(TB) leukemia, more than 100 µM; with LOX IMVI melanoma, more than 100 µM; in the assay with MOLT-4 leukemia, more than 100 µM; in the assay with OVCAR-8 ovarian, more than 100 µM; in the assay on RPMI-8226 leukemia, 1.18 µM. The TGI in the assay on SN12C renal is more than 100 µM; with SNB-75 CNS it was 2.05 µM; in the assay with UACC-257 melanoma it was more than 100 µM.
Regarding `CCCCN(CC)CC(C(C)=O)c1c(O)c2ccccc2oc1=O` (stereo unspecified), the TGI with HCC-2998 colon, with HL-60(TB) leukemia, with LOX IMVI melanoma, with MOLT-4 leukemia, in the assay with OVCAR-8 ovarian and in the assay with RPMI-8226 leukemia was more than 100 µM in each case. In addition, the TGI in the assay on SK-MEL-5 melanoma, in the assay on SN12C renal, in the assay on SNB-75 CNS and in the assay on UACC-257 melanoma was more than 100 µM throughout.
In the case of `O=c1oc2ccccc2[n+]([O-])c1-c1ccccc1`, the TGI in the assay with HCC-2998 colon, with HL-60(TB) leukemia, with LOX IMVI melanoma, with MOLT-4 leukemia, with OVCAR-8 ovarian and in the assay on RPMI-8226 leukemia was more than 100 µM in each case. Besides, the TGI in the assay with SK-MEL-5 melanoma, in the assay on SN12C renal, with SNB-75 CNS and with UACC-257 melanoma was more than 100 µM in each case.
